pIC50: −log10 of the molar value. Read-outs that look alike come from different tables or passages of the source.
Test system: vesicular stomatitis virus particles (VSV) pseudotyped with EboV Zaire GP
Test: microbe, parasite or virus in culture
Type: cell-based

| Compound | pIC50 (Vesicular stomatitis virus) | pIC50 (read-out: IC50) |
| --- | --- | --- |
| COC(=O)c1ccc(COc2ccccc2CN2CCN(C(=O)CNC(=O)C3CC3(C)C)CC2)cc1 (stereo not shown) [Compound 1317, Methyl 4-((2-((4-((2,2-dimethylcyclopropane-1-carbonyl)glycyl)piperazin-1-yl)methyl)phenoxy)methyl)benzoate] | 6.40 | – |
| COC(=O)c1ccc(COc2ccccc2CN2CCN(C(=O)CNC(=O)OC3CCC(F)(F)CC3)CC2)cc1 [Compound 1319, Methyl 4-((2-((4-((((4,4-difluorocyclohexyl)oxy)carbonyl)glycyl)piperazin-1-yl)methyl)phenoxy)methyl)benzoate] | 6.51 | – |
| COC(=O)c1ccc(COc2ccccc2CN2CCN(C(=O)CNC(=O)NC3CCC(F)(F)CC3)CC2)cc1 [Compound 1320, Methyl 4-((2-((4-(((4,4-difluorocyclohexyl)carbamoyl)glycyl)piperazin-1-yl)methyl)phenoxy)methyl)benzoate] | < 5.70 | – |
| Nc1ccc(Cl)cc1CN1CCN(C(=O)CNC(=O)CC23CC4CC(CC(C4)C2)C3)CC1 [Compound 1321, 2-((1R,3R,5S)-Adamantan-1-yl)-N-(2-(4-(2-amino-5-chlorobenzyl)piperazin-1-yl)-2-oxoethyl)acetamide] | 7.05 | – |
| COC(=O)c1cccc(Oc2cc(Cl)cc(CN3CCN(C(=O)CNC(=O)CC45CC6CC(CC(C6)C4)C5)CC3)c2)c1 [Compound 1322, Methyl 3-(3-((4-((2-((1R,3R,5S)-adamantan-1-yl)acetyl)glycyl)piperazin-1-yl)methyl)-5-chlorophenoxy)benzoate] | 7.96 | – |
| COC(=O)c1ccc(Oc2cc(Cl)cc(CN3CCN(C(=O)CNC(=O)CC45CC6CC(CC(C6)C4)C5)CC3)c2)cc1 [Compound 1323, Methyl 4-(3-((4-((2-((1R,3R,5S)-adamantan-1-yl)acetyl)glycyl)piperazin-1-yl)methyl)-5-chlorophenoxy)benzoate] | – | 7.82 |
| O=C(CC12CC3CC(CC(C3)C1)C2)NCC(=O)N1CCN(Cc2cc(F)c(F)cc2O)CC1 [Compound 1324, 2-((1R,3R,5S)-Adamantan-1-yl)-N-(2-(4-(4,5-difluoro-2-hydroxybenzyl)piperazin-1-yl)-2-oxoethyl)acetamide] | 5.82 | – |
| O=C(CC12CC3CC(CC(C3)C1)C2)NCC(=O)N1CCN(Cc2cc(F)cc(F)c2O)CC1 [Compound 1325, 2-((1R,3R,5S)-Adamantan-1-yl)-N-(2-(4-(3,5-difluoro-2-hydroxybenzyl)piperazin-1-yl)-2-oxoethyl)acetamide] | 6.00 | – |
| O=C(CC12CC3CC(CC(C3)C1)C2)NCC(=O)N1CCN(Cc2cc(Cl)cc(C(F)(F)F)c2)CC1 [Compound 1326, 2-((1R,3R,5S)-Adamantan-1-yl)-N-(2-(4-(3-chloro-5-(trifluoromethyl)benzyl)piperazin-1-yl)-2-oxoethyl)acetamide] | 6.04 | – |
| O=C(CC12CC3CC(CC(C3)C1)C2)NCC(=O)N1CCN(Cc2cc(Cl)cc(F)c2F)CC1 [Compound 1327, 2-((1R,3R,5S)-Adamantan-1-yl)-N-(2-(4-(5-chloro-2,3-difluorobenzyl)piperazin-1-yl)-2-oxoethyl)acetamide] | 6.17 | – |
| COC(=O)c1ccc(COc2ccccc2CN2CCN(C(=O)CNC(=O)C3(C)CCC(F)(F)CC3)CC2)cc1 [Compound 1328, Methyl 4-((2-((4-((4,4-difluoro-1-methylcyclohexane-1-carbonyl)glycyl)piperazin-1-yl)methyl)phenoxy)methyl)benzoate] | 6.60 | – |
| N#Cc1ccc(Br)cc1CN1CCN(C(=O)CNC(=O)CC23CC4CC(CC(C4)C2)C3)CC1 [Compound 1329, 2-((1R,3R,5S)-Adamantan-1-yl)-N-(2-(4-(5-bromo-2-cyanobenzyl)piperazin-1-yl)-2-oxoethyl)acetamide] | 6.51 | – |
| O=C(CC12CC3CC(C1)C(C3)C2)NCC(=O)N1CCN(Cc2cc(Cl)cc(OC(F)(F)F)c2)CC1 [Compound 1330] | 5.82 | – |
| O=C(CC12CC3CC(CC(C3)C1)C2)NCC(=O)N1CCN(Cc2cc(Cl)cc(Br)c2)CC1 [Compound 1332, 2-((1R,3R,5S)-Adamantan-1-yl)-N-(2-(4-(3-bromo-5-chlorobenzyl)piperazin-1-yl)-2-oxoethyl)acetamide] | 6.05 | – |
| COC(=O)c1ccc(COc2ccc(Cl)cc2CN2CCN(C(=O)CNC(=O)CC3CCC(F)(F)CC3)CC2)cc1 [Compound 1333, Methyl 4-((4-chloro-2-((4-((2-(4,4-difluorocyclohexyl)acetyl)glycyl)piperazin-1-yl)methyl)phenoxy)methyl)benzoate] | 7.82 | – |
| COC(=O)c1ccc(COc2ccc(Cl)cc2CN2CCN(C(=O)CNC(=O)CC3(C)CCCCC3)CC2)cc1 [Compound 1334, Methyl 4-((4-chloro-2-((4-((2-(1-methylcyclohexyl)acetyl)glycyl)piperazin-1-yl)methyl)phenoxy)methyl)benzoate] | 7.72 | – |
| COC(=O)c1ccc(COc2ccc(F)cc2CN2CCN(C(=O)CNC(=O)CC3CCC(F)(F)CC3)CC2)cc1 [Compound 1335, Methyl 4-((2-((4-((2-(4,4-difluorocyclohexyl)acetyl)glycyl)piperazin-1-yl)methyl)-4-fluorophenoxy)methyl)benzoate] | 7.74 | – |

| Compound | pIC50 (Vesicular stomatitis virus) | pIC50 (read-out: IC50) |
| --- | --- | --- |
| COC(=O)c1ccc(COc2ccc(F)cc2CN2CCN(C(=O)CNC(=O)CC3(C)CCCCC3)CC2)cc1 [Compound 1336, Methyl 4-((4-fluoro-2-((4-((2-(1-methylcyclohexyl)acetyl)glycyl)piperazin-1-yl)methyl)phenoxy)methyl)benzoate] | 7.29 | – |
| O=C(CC12CC3CC(CC(C3)C1)C2)NCC(=O)N1CCN(Cc2cc(Br)ccc2F)CC1 [Compound 1337, 2-((1R,3R,5S)-Adamantan-1-yl)-N-(2-(4-(5-bromo-2-fluorobenzyl)piperazin-1-yl)-2-oxoethyl)acetamide] | 5.92 | – |
| O=C(CC12CC3CC(CC(C3)C1)C2)NCC(=O)N1CCN(Cc2cc(Br)ccc2Cl)CC1 [Compound 1338, 2-((1R,3R,5S)-Adamantan-1-yl)-N-(2-(4-(5-bromo-2-chlorobenzyl)piperazin-1-yl)-2-oxoethyl)acetamide] | 7.09 | – |
| O=C(CC12CC3CC(CC(C3)C1)C2)NCC(=O)N1CCN(Cc2cc(F)cc(Br)c2)CC1 [Compound 1339, 2-((1R,3R,5S)-Adamantan-1-yl)-N-(2-(4-(3-bromo-5-fluorobenzyl)piperazin-1-yl)-2-oxoethyl)acetamide] | 5.85 | – |
| O=C(CC12CC3CC(CC(C3)C1)C2)NCC(=O)N1CCN(Cc2cc(Br)cc([N+](=O)[O-])c2)CC1 [Compound 1340, 2-((1R,3R,5S)-Adamantan-1-yl)-N-(2-(4-(3-bromo-5-nitrobenzyl)piperazin-1-yl)-2-oxoethyl)acetamide] | 5.90 | – |
| Nc1cc(Br)cc(CN2CCN(C(=O)CNC(=O)CC34CC5CC(CC(C5)C3)C4)CC2)c1 [Compound 1341, 2-((1R,3R,5S)-Adamantan-1-yl)-N-(2-(4-(3-amino-5-bromobenzyl)piperazin-1-yl)-2-oxoethyl)acetamide] | 6.49 | – |
| CC(=O)Nc1ccc(Cl)cc1CN1CCN(C(=O)CNC(=O)CC23CC4CC(CC(C4)C2)C3)CC1 [Compound 1342, N-(2-(4-(2-Acetamido-5-chlorobenzyl)piperazin-1-yl)-2-oxoethyl)-2-((3s)-adamantan-1-yl)acetamide] | – | 5.96 |
| COC(=O)c1ccc(COc2ccccc2CN2CCN(C(=O)CNC(=O)C3C4CC(F)(F)CC43)CC2)cc1 (stereo not shown) [Compound 1344, Methyl 4-((2-((4-((3,3-difluorobicyclo[3.1.0]hexane-6-carbonyl)glycyl)piperazin-1-yl)methyl)phenoxy)methyl)benzoate] | 6.77 | – |
| COC(=O)c1ccc(COc2ccc(Cl)cc2CN2CCN(C(=O)CNC(=O)C3C4CC(F)(F)CC43)CC2)cc1 (stereo not shown) [Compound 1346, Methyl 4-((4-chloro-2-((4-((3,3-difluorobicyclo[3.1.0]hexane-6-carbonyl)glycyl)piperazin-1-yl)methyl)phenoxy)methyl)benzoate] | 6.70 | – |
| N#Cc1cc(Br)cc(CN2CCN(C(=O)CNC(=O)CC34CC5CC(CC(C5)C3)C4)CC2)c1 [Compound 1348, 2-((1R,3R,5S)-Adamantan-1-yl)-N-(2-(4-(3-bromo-5-cyanobenzyl)piperazin-1-yl)-2-oxoethyl)acetamide] | 5.89 | – |
| Nc1c(Cl)cc(Cl)cc1CN1CCN(C(=O)CNC(=O)CC23CC4CC(CC(C4)C2)C3)CC1 [Compound 1349, 2-((1R,3R,5S)-Adamantan-1-yl)-N-(2-(4-(2-amino-3,5-dichlorobenzyl)piperazin-1-yl)-2-oxoethyl)acetamide] | 6.30 | – |
| O=C(CC12CC3CC(CC(C3)C1)C2)NCC(=O)N1CCN(Cc2cc(Cl)cc(Cl)c2Cl)CC1 [Compound 1350, 2-((1R,3R,5S)-adamantan-1-yl)-N-(2-oxo-2-(4-(2,3,5-trichlorobenzyl)piperazin-1-yl)ethyl)acetamide] | 6.10 | – |
| O=C(CC12CC3CC(CC(C3)C1)C2)NCC(=O)N1CCN(Cc2cc(Cl)ccc2Br)CC1 [Compound 1351, 2-((1R,3R,5S)-Adamantan-1-yl)-N-(2-(4-(2-bromo-5-chlorobenzyl)piperazin-1-yl)-2-oxoethyl)acetamide] | 5.96 | – |
| C#Cc1ccc(F)c(CN2CCN(C(=O)CNC(=O)CC34CC5CC(CC(C5)C3)C4)CC2)c1 [Compound 1352, 2-((1R,3R,5S)-Adamantan-1-yl)-N-(2-(4-(5-ethynyl-2-fluorobenzyl)piperazin-1-yl)-2-oxoethyl)acetamide] | 5.77 | – |
| O=C(CC12CC3CC(CC(C3)C1)C2)NCC(=O)N1CCN(Cc2cc(F)c(F)cc2Cl)CC1 [Compound 1353, 2-((1R,3R,5S)-Adamantan-1-yl)-N-(2-(4-(2-chloro-4,5-difluorobenzyl)piperazin-1-yl)-2-oxoethyl)acetamide] | 5.82 | – |
| O=C(CC12CC3CC(CC(C3)C1)C2)NCC(=O)N1CCN(Cc2cc(OC3CC3)ccc2F)CC1 [Compound 1354, 2-((1R,3R,5S)-Adamantan-1-yl)-N-(2-(4-(5-cyclopropoxy-2-fluorobenzyl)piperazin-1-yl)-2-oxoethyl)acetamide] | < 5.70 | – |
| Nc1ccc(Br)cc1CN1CCN(C(=O)CNC(=O)CC2CCC(F)(F)CC2)CC1 [Compound 1355, N-(2-(4-(2-Amino-5-bromobenzyl)piperazin-1-yl)-2-oxoethyl)-2-(4,4-difluorocyclohexyl)acetamide] | 5.76 | – |

Source: patent US11629139B2 (priority 2017, dated 2023)
